In US10406239B2, “Water-soluble docetaxel anticancer drug compound and preparation method and use thereof” (NANJING YOUYI MEDICAL TECHNOLOGY CO., LTD, priority 2015, dated 2019):
Marks after values point to notes of the source that are not given here.

Key:
[1] = test system: A549 human lung cancer xenografts; test: Growth inhibition on A549 human lung cancer xenografts in nude mice; type: in vivo, BALB/c nude mice; settings: for Tumor inhibition rate: by tumor weight; for Tumor weight: tumors excised after 21 days
Method: (§1) The dose volume was 0.4 ml per 20 g, that is, the dose was 96 mg/kg. Then, the solution was diluted to other desired concentrations with 0.9% sodium chloride solution.
(§2) Docetaxel injection, manufactured by Jiangsu Hengrui Pharmaceutical Co., Ltd., lot number: 15011215, specification: 0.5 ml: 20 mg. Formulation method: during use, 20 mg of docetaxel injection of the above specification was added to 1.5 ml of a solvent for the docetaxel injection to give a concentration of 10 mg/ml, and then fully diluted with saline to 1 mg/ml. The dose volume was 0.2 ml per 20 g, that is, the dose was 10 mg/kg.
(§3) BALB/c nude mice, provided by Changzhou Kavens Laboratory Animal Co., Ltd. (Experimental Animal Production License: SOCK (Su) 2011-0003), age: 35-40 days, weight: 18-24 g, female.
A549 human lung cancer xenografts in nude mice was established by inoculating human lung cancer A549 cell line subcutaneously to the axillary fossa of nude mice in an amount of 2*10^6 cells/animal.
(§4) Human lung cancer A549 cell line in logarithmic growth phase was prepared into a cell suspension of 1×10^8 cells/ml under aseptic conditions and subcutaneously inoculated to the right axillary fossa of nude mice in a volume of 0.1 ml. The size of the xenograft in the nude mice was measured with a vernier caliper. After the xenografts grew to 100-300 mm^3, the animals were randomly grouped. The anti-tumor effect of the test agents was dynamically observed by measuring the size of the xenografts. The size of the xenografts was measured once every 3 days. The dose volume was 0.4 ml/20 g. Twenty-one days later, the mice were sacrificed and the tumors were surgically excised and weighed. The tumor volume (TV) is calculated by a formula below: TV=½×a×b^2
The relative tumor volume (RTV) is calculated based on the measurements by a formula: RTV=Vt/V0, where V0 is the measured tumor volume upon being caged (i.e., d0) and Vt is the tumor volume at each measurement. The evaluation index of the anti-tumor activity is relative tumor growth rate T/C (%), which is calculated by a formula below: […]
in which TRTV is the RTV of the treatment group; and CRTV is the RTV of the negative control group.
The tumor inhibition rate is calculated by a formula below: […]
Tweight is the average tumor weight of the treatment group; and Cweight is the average tumor weight of the negative control group.

[2] = Effect on body weight of nude mice with A549 human lung cancer xenografts; type: in vivo, BALB/c nude mice; settings: for Initial body weight: before dosing; for Final body weight: once every 3 days, end of study (21 days)
Method: as §1, §2, §3, §4

[3] = XBB-023 24 mg/kg, tail vein, once every 3 days, 7 doses, 21 d
[4] = XBB-023 24 mg/kg, tail vein, once every 3 days, 3 d
[5] = XBB-023 24 mg/kg, tail vein, once every 3 days, 6 d
[6] = XBB-023 24 mg/kg, tail vein, once every 3 days, 9 d
[7] = XBB-023 24 mg/kg, tail vein, once every 3 days, 12 d
[8] = XBB-023 24 mg/kg, tail vein, once every 3 days, 15 d
[9] = XBB-023 24 mg/kg, tail vein, once every 3 days, 18 d
[10] = XBB-023 48 mg/kg, tail vein, once every 3 days, 7 doses, 21 d
[11] = XBB-023 48 mg/kg, tail vein, once every 3 days, 3 d
[12] = XBB-023 48 mg/kg, tail vein, once every 3 days, 6 d
[13] = XBB-023 48 mg/kg, tail vein, once every 3 days, 9 d
[14] = XBB-023 48 mg/kg, tail vein, once every 3 days, 12 d
[15] = XBB-023 48 mg/kg, tail vein, once every 3 days, 15 d
[16] = XBB-023 48 mg/kg, tail vein, once every 3 days, 18 d
[17] = XBB-023 96 mg/kg, tail vein, once every 3 days, 7 doses, 21 d
[18] = XBB-023 96 mg/kg, tail vein, once every 3 days, 3 d
[19] = XBB-023 96 mg/kg, tail vein, once every 3 days, 6 d
[20] = XBB-023 96 mg/kg, tail vein, once every 3 days, 9 d
[21] = XBB-023 96 mg/kg, tail vein, once every 3 days, 12 d
[22] = XBB-023 96 mg/kg, tail vein, once every 3 days, 15 d
[23] = XBB-023 96 mg/kg, tail vein, once every 3 days, 18 d

Polyethylene Glycol Monomethyl Ether (Mn=1000) Docetaxel-2′-Diglycolate [XBB-023]
Tumor volume ([1]; XBB-023 24 mg/kg group, 0 d (baseline)): 101.08 ± 20.73 mm^3
Tumor inhibition rate ([1]; XBB-023 24 mg/kg, once every 3 days, 7 doses, 24 mg/kg): 34.73%
Tumor weight ([1]; XBB-023 24 mg/kg, once every 3 days): 0.78 ± 0.22 g
RTV (relative tumor volume) [1, 3]: 6.39 ± 0.81
Tumor volume [1, 3]: 660.00 ± 210.71* mm^3
T/C (relative tumor growth rate) ([1]; XBB-023 24 mg/kg, tail vein, once every 3 days, 7 doses, 21 d, 24 mg/kg): 56.30%
RTV (relative tumor volume) [1, 4]: 2.27 ± 0.52
T/C (relative tumor growth rate) [1, 4]: 78.90%
Tumor volume [1, 4]: 232.16 ± 79.30* mm^3
RTV (relative tumor volume) [1, 5]: 2.38 ± 0.37
T/C (relative tumor growth rate) [1, 5]: 66.13%
Tumor volume [1, 5]: 244.45 ± 80.88** mm^3
RTV (relative tumor volume) [1, 6]: 2.85 ± 0.39
T/C (relative tumor growth rate) [1, 6]: 61.19%
Tumor volume [1, 6]: 289.34 ± 82.35** mm^3
RTV (relative tumor volume) [1, 7]: 3.68 ± 0.51
T/C (relative tumor growth rate) [1, 7]: 57.80%
Tumor volume [1, 7]: 371.41 ± 95.01** mm^3
RTV (relative tumor volume) [1, 8]: 4.91 ± 1.58
T/C (relative tumor growth rate) [1, 8]: 58.72%
Tumor volume [1, 8]: 522.84 ± 249.70* mm^3
RTV (relative tumor volume) [1, 9]: 5.68 ± 1.66
T/C (relative tumor growth rate) [1, 9]: 58.60%
Tumor volume [1, 9]: 602.28 ± 288.50** mm^3
Tumor volume ([1]; XBB-023 48 mg/kg group, 0 d (baseline)): 101.49 ± 18.47 mm^3
Tumor inhibition rate ([1]; XBB-023 48 mg/kg, once every 3 days, 7 doses, 48 mg/kg): 68.55%
Tumor weight ([1]; XBB-023 48 mg/kg, once every 3 days): 0.38 ± 0.14 g
RTV (relative tumor volume) [1, 10]: 2.90 ± 0.37
Tumor volume [1, 10]: 299.13 ± 86.76** mm^3
T/C (relative tumor growth rate) ([1]; XBB-023 48 mg/kg, tail vein, once every 3 days, 7 doses, 21 d, 48 mg/kg): 25.56%
RTV (relative tumor volume) [1, 11]: 1.59 ± 0.35
T/C (relative tumor growth rate) [1, 11]: 55.23%
Tumor volume [1, 11]: 159.57 ± 38.77** mm^3
RTV (relative tumor volume) [1, 12]: 1.80 ± 0.18
T/C (relative tumor growth rate) [1, 12]: 49.90%
Tumor volume [1, 12]: 180.89 ± 31.39** mm^3
T/C (relative tumor growth rate) [1, 13]: 52.80%
Tumor volume [1, 13]: 245.14 ± 40.82** mm^3
RTV (relative tumor volume) [1, 14]: 3.02 ± 0.53
T/C (relative tumor growth rate) [1, 14]: 47.50%
Tumor volume [1, 14]: 302.66 ± 60.48 mm^3
RTV (relative tumor volume) [1, 15]: 2.61 ± 0.47
T/C (relative tumor growth rate) [1, 15]: 31.23%
Tumor volume [1, 15]: 264.78 ± 68.29** mm^3
RTV (relative tumor volume) [1, 16]: 2.50 ± 0.37
T/C (relative tumor growth rate) [1, 16]: 25.76%
Tumor volume [1, 16]: 257.22 ± 76.37** mm^3
Tumor volume ([1]; XBB-023 96 mg/kg group, 0 d (baseline)): 102.83 ± 14.74 mm^3
inhibition rate higher than that in the positive control group ([1]; XBB-023 96 mg/kg versus 10 mg/kg docetaxel): 16.29%
Tumor inhibition rate ([1]; XBB-023 96 mg/kg, once every 3 days, 7 doses, 96 mg/kg): 88.45%
Tumor weight ([1]; XBB-023 96 mg/kg, once every 3 days): 0.14 ± 0.03 g
RTV (relative tumor volume) [1, 17]: 1.46 ± 0.32
Tumor volume [1, 17]: 146.15 ± 20.51** mm^3
T/C (relative tumor growth rate) ([1]; XBB-023 96 mg/kg, tail vein, once every 3 days, 7 doses, 21 d, 96 mg/kg): 12.83%
RTV (relative tumor volume) [1, 18]: 1.54 ± 0.31
T/C (relative tumor growth rate) [1, 18]: 53.47%
Tumor volume [1, 18]: 154.44 ± 15.73** mm^3
RTV (relative tumor volume) [1, 19]: 1.26 ± 0.15
T/C (relative tumor growth rate) [1, 19]: 35.11%
Tumor volume [1, 19]: 129.15 ± 19.29** mm^3
RTV (relative tumor volume) [1, 20]: 1.54 ± 0.22
T/C (relative tumor growth rate) [1, 20]: 33.18%
Tumor volume [1, 20]: 15628 ± 17.71** mm^3
RTV (relative tumor volume) [1, 21]: 1.54 ± 0.33
T/C (relative tumor growth rate) [1, 21]: 24.19%
Tumor volume [1, 21]: 156.91 ± 35.05** mm^3
RTV (relative tumor volume) [1, 22]: 1.06 ± 0.28
T/C (relative tumor growth rate) [1, 22]: 12.63%
Tumor volume [1, 22]: 107.31 ± 27.45** mm^3
RTV (relative tumor volume) [1, 23]: 1.13 ± 0.21
T/C (relative tumor growth rate) [1, 23]: 11.66%
Tumor volume [1, 23]: 114.16 ± 17.61** mm^3
effect on the body weight of the experimental mice (in words) ([2]; 48 mg/kg XBB-023, P<0.05): significant effect
effect on the body weight of the experimental mice (in words) ([2]; 96 mg/kg XBB-023, P<0.01): Extremely significant effect
Initial body weight ([2]; XBB-023 24 mg/kg group): 22.17 ± 1.57 g
Final body weight ([2]; XBB-023 24 mg/kg): 23.17 ± 0.90 g
Initial body weight ([2]; XBB-023 48 mg/kg group): 21.33 ± 1.37 g
Final body weight ([2]; XBB-023 48 mg/kg): 20.00 ± 0.82 g
Initial body weight ([2]; XBB-023 96 mg/kg group): 22.00 ± 0.82 g
Final body weight ([2]; XBB-023 96 mg/kg): 16.00 ± 2.31 g
